# Test results: patent US8784774B2, “Labeled molecular imaging agents and methods of use” (General Electric Company, priority 2011, dated 2014)
# Like-named read-outs stand apart in the source and are kept apart here.
# Legend:
# [1] = molecular target: T1, cystine/glutamate transporter (Mus musculus, UniProt Q9WTR6); test: cell-based
# T1 sequence (Q9WTR6 1-502): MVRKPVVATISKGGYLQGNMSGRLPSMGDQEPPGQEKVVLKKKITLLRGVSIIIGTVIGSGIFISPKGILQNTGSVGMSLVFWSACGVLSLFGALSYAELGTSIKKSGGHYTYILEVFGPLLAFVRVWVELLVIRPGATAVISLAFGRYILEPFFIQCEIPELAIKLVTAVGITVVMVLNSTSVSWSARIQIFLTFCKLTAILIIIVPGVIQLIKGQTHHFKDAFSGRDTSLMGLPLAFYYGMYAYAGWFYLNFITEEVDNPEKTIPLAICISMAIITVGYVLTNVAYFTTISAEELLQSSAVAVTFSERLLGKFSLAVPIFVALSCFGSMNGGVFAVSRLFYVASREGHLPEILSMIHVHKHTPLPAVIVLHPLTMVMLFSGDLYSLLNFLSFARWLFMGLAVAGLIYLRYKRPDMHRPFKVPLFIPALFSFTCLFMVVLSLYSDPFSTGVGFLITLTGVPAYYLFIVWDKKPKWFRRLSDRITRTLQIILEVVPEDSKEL
# T1 sequence (P10852 1-526 partner): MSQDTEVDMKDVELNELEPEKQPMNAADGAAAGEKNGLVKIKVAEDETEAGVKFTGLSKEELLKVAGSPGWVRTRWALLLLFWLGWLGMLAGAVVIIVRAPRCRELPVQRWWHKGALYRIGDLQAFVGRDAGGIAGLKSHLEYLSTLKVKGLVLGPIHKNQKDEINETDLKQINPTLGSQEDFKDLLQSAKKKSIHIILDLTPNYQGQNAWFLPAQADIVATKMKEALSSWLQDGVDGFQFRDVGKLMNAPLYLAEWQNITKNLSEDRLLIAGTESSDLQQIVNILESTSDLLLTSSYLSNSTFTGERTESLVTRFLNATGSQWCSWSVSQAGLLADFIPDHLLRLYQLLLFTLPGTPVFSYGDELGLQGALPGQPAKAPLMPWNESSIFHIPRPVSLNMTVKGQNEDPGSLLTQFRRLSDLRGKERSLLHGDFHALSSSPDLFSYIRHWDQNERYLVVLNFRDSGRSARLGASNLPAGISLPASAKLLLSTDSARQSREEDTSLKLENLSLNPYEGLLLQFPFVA
# [2] = molecular target: T1, cystine/glutamate transporter; test: Screen of unlabeled compounds for competition with 3H-L-ASU uptake (Example 3); format: cell-based; set-up: endogenous in cells; details: read-out: inhibition of ^3H-L-ASU uptake
# [3] = molecular target: T1, cystine/glutamate transporter; test: 3H-L-Asu uptake in EL4 cells with or without DEM and with transporter inhibitors (Example 1); format: cell-based; set-up: endogenous in cells; host or cells: EL4 mouse lymphoma cells, with or without diethylmaleate (DEM) treatment
# Method: Mouse lymphoma cells (EL4) were cultured with or without 100 μM diethylmaleate for 24 hours, washed in phosphate buffered saline (PBS) divided into aliquots of 5×10^6 cells and incubated with [^3H]-L-2-aminosuberic acid (^3H-L-Asu) without or with inhibitors of the cystine/glutamate transporter for 15 minutes. Cells were then washed 3 times and collected in a 1 ml volume of 1M HCl and transferred to a scintillation vial. 12 ml of Ready Gel scintillation fluid was added to each sample and cell uptake was determined by scintillation counting using a Perkin Elmer Tri-Carb Liquid Scintillation Analyzer.
# [4] = molecular target: T1, cystine/glutamate transporter; details: read-out: IC50 for inhibition of ^3H-L-GLU uptake; DEM treated EL4 cells; separate set of experiments
# [5] = test system: EL4 xenograft tumor tissue slices; test: Ex vivo uptake in EL4 xenograft tumor tissue slices (Example 5); format: cell-based, mouse; details: 0.33 μCi, 30 minutes, agents matched for specific activity and radioactive dose
# Method: We compared uptake of ^3H-ASU in tumor tissue ex vivo with uptake of ^3H-FDG, a tritiated form of the common ^18F-FDG imaging agent. the two agents were matched for specific activity and radioactive dose. 0.33 μCi of agent was incubated with equivalent aliquots of EL4 xenograft tumor tissue slices for 30 minutes (tumors processed with three passes on a McIlwain Tissue chopper, at 500 um steps, and washed with fresh buffer). Slices where washed three times, lysed with 1M HCl and evaluated by scintillation counting.
# [6] = molecular target: T1, cystine/glutamate transporter; test: Uptake of labeled compounds in DEM treated EL4 cells with or without SSZ (Example 2); format: cell-based; set-up: endogenous in cells; host or cells: EL4 mouse lymphoma cells, with or without diethylmaleate (DEM) treatment; details: for inhibition of uptake by SSZ: 500 μM SSZ; for Uptake relative to ^3H-GLU: 0.33 μCi; for SSZ inhibition (%): uptake of the labeled compound with 500 μM SSZ
# Method: 5×10^6 DEM treated EL4 cells were incubated with 0.33 μCi of either [^3H]-L-ASU, [^3H]-L-GLU or [^35S]-L-Cystine (with or without 500 μM SSZ) for 15 minutes before being washed three times in PBS and uptake was analyzed via liquid scintillation counting.
# [7] = unlabeled competitor at high concentration (2.5 mM)
smiles,measurement,setting,value
N[C@H](CCCCCC(=O)O)C(=O)O [D-ASU],IC50,[1],36.2 µM
same,inhibition at 2500 µM,[2],> 90%
"N[C@H](CCC[C@H](N)C(=O)O)C(=O)O [DiAPA, diaminopimelic acid]",inhibition at 2500 µM,[2]; [7],< 45%
"N[C@@H](CCCC(=O)O)C(=O)O [L-AAA, L-aminoadipic acid]",IC50,[1],23.9 µM
same,inhibition at 2500 µM,[2]; [7],> 90%
"N[C@@H](CCCCCC(=O)O)C(=O)O [L-ASU, L-aminosuberic acid]",inhibition at 2500 µM,"[3]; EL4, read-out: inhibition of ^3H-L-Asu uptake",> 95%
same,IC50,[1],2.9 µM
same,inhibition at 2500 µM,[2],> 90%
"N[C@@H](CCC(=O)O)C(=O)O [L-GLU, L-glutamate]",IC50,[4],4.7 µM
"[3H]C(CCC(=O)O)C([3H])C[C@H](N)C(=O)O (stereo partly drawn) [^3H-Asu, (S)-2-amino 4,5-^3H-suberic acid]",^3H-L-Asu uptake in cells exposed to oxidative stress,"[3]; EL4 cells, 100 μM diethylmaleate (DEM) 24 hours vs without, 15 minutes incubation",increased
same,more uptake than ^3H-FDG,[5],70%
same,inhibition of uptake by SSZ,[6],almost completely inhibited
same,Uptake relative to ^3H-GLU,[6]; 15 minutes,447.0 (±22.1)
same,uptake efficiency relative to L-GLU uptake,[6]; 15 minutes,approximately 4.5 times
same,SSZ inhibition (%),[6]; 15 minutes,95.8 (±0.17) %
"N[C@@H](CSSC[C@H](N)C(=O)O)C(=O)O [^35S-Cystine, [^35S]-L-Cystine]",inhibition of uptake by SSZ,[6],approximately ⅔
same,Uptake relative to ^3H-GLU,[6]; 15 minutes,168.8 (±2.0)
same,SSZ inhibition (%),[6]; 15 minutes,68.7 (±1.76) %
O=C(O)CCCCCCC(=O)O [suberic acid],inhibition at 2500 µM,[2]; [7],< 45%
O=C(O)c1cc(/N=N/c2ccc(S(=O)(=O)Nc3ccccn3)cc2)ccc1O [sulfasalazine],inhibition at 500 µM,"[3]; inhibitor 500 μM, EL4 cells, 15 minutes",> 95%
N[C@@H](CCC(=O)NCC(=O)O)C(=O)O [γ-glutamyl-glycine],inhibition at 2500 µM,[2]; [7],< 45%
